Assay results taken from patent publication US20170165259A1, “COMBINED MODULATION OF IRE1” (THE REGENTS OF THE UNIVERSITY OF CALIFORNIA, priority 2014, published 2017).
pIC50: −log10 of the molar value.

What was measured:
[1] = test system: endogenous IRE1α; assay: XBP1 mRNA splicing in INS-1 cells under ER stress; format: cell-based, rat
Experimental: (§1) FIGS. 5A-5E. […] (FIG. 5C) EtBr-stained agarose gel of XBP1 complementary DNA (cDNA) amplicons from the INS-1 cells described in (B).
(§2) To further explore how IRE1α modulators affect the kinase and RNase activities of endogenous IRE1α under ER stress, in vivo studies using INS-1 rat insulinoma cell lines, which are derived from insulin-producing pancreatic β-cell tumors and contain large well-developed ERs, were conducted.

[2] = biological target: T1, IRE1α* (Homo sapiens, UniProt O75460); assay: XBP1 RNA minisubstrate (FRET-quenched) RNase assay; format: biochemical; details: for IRE1α* RNase activity (XBP1 RNA cleavage), effect in words: in vitro
T1 construct: human IRE1α (residues 469-977, IRE1α*); made in house; host or cells: SF9 insect cells, Bac-to-Bac baculovirus
T1 sequence (O75460 469-977): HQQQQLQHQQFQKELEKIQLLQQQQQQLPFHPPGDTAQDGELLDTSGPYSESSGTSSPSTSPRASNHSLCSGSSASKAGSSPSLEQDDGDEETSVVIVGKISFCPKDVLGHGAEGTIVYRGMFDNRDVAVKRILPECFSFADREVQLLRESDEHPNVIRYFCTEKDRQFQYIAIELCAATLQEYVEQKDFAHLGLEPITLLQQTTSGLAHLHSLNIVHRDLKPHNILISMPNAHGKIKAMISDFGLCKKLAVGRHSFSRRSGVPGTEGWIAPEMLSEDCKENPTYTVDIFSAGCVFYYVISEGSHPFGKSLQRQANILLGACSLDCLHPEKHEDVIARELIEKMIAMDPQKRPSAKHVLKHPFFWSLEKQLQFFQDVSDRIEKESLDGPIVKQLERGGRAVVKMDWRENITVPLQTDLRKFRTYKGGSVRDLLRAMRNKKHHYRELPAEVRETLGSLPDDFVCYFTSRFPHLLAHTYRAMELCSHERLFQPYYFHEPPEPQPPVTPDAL

[3] = test system: panel of kinases (Src, Abl); assay: Counter-screen against a panel of kinases; format: biochemical; details: 12 kinases in this panel
[4] = test system: endogenous IRE1α; assay: IRE1α auto-phosphorylation immunoblot in INS-1 cells under ER stress; format: cell-based, rat
Experimental: as §1, §2
For protein analysis, cells were lysed in M-PER buffer (Thermo Scientific) plus complete EDTA-free protease inhibitor (Roche) and phosphatase inhibitor cocktail (Sigma). The concentration of samples was determined using BCA Protein Assay (Thermo). […] Gels were run using MES buffer and transferred onto nitrocellulose transfer membrane using an XCell II™ Blot Module. Blocking, antibody incubation, and washing were done in PBS or TBS with 0.05% Tween-20 (v/v) and 5% (w/v) non-fat dry milk or BSA, or blocking buffer (Licor-Odyssey). Antibodies used were: mouse anti-Actin (Sigma-Aldrich); rabbit anti-cleaved Caspase-2 (Abcam); mouse anti-GAPDH, anti-c-Myc, anti-rabbit, anti-proinsulin, and anti-IRE1α (Santa Cruz Biotechnology); anti-phospho-IRE1α and anti-full length Caspase-2 (Novus Biologicals); and rabbit anti-Caspase-3, anti-JNK, anti-eIF2a, anti-phospho-eIF2a, and mouse anti-phospho-JNK (Cell Signaling). Antibody binding was detected by using near-infrared-dye-conjugated secondary antibodies (Licor) on the LI-COR Odyssey scanner or visualized by capturing on a CL-XPosure film using ECL SuperSignal West Dura Extended Duration Substrate (both from Thermo Scientific).

[5] = biological target: T1, IRE1α*; assay: ICAT cysteine footprinting (alkylation rates); format: binding; details: inhibitor 20 μM
Excerpt: FIGS. 3A-3D. Characterization of GP146's interaction with the ATP-binding site of IRE1α. (FIG. 3A) A crystal structure of the kinase domain of human IRE1α bound to ADP; the native cysteine residues that were monitored using the ICAT footprinting method are labeled and shown as thick rods and the DFG-motif is shown as thin bars; cys715 is part of the hinge region of IRE1α and its side chain partially occupies the ATP-binding site; cys645 is in the activation loop, two residues away from the DFG-motif; cys572 is located on the top of the N-terminal lobe of the catalytic domain and is distant from the ATP-binding site.
As Cys645 and Cys715 are located within the ATP-binding cleft of IRE1α, the accessibility of these residues would be expected to be affected by ligands that occupy this site, while Cys572 is a solvent-exposed residue located on the top of the N-terminal lobe of the kinase.

[6] = test system: yeast and murine IRE1α; details: cited from earlier work
[7] = biological target: T1, IRE1α*; assay: IRE1α* autophosphorylation kinase assay in vitro; format: biochemical
[8] = Compound toxicity / proliferative blocks in cells; format: cell-based
[9] = biological target: T2, IRE1α* (P830L) (Homo sapiens, UniProt O75460, P830L); assay: IRE1α* (P830L) cancer mutant: kinase, RNase, oligomeric state in vitro; format: biochemical
T2 construct: human IRE1α (residues 469-977, IRE1α*) or equivalent IRE1α mutants; made in house; host or cells: SF9 insect cells, Bac-to-Bac baculovirus
T2 sequence (O75460 469-977 P830L): as the sequence (O75460 469-977) above, with P362L counted along it
Excerpt: Compared to IRE1α* (WT), IRE1α* (P830L) has reduced kinase activity, as the full-length protein does in vivo. […] IRE1α* (P830L) cannot cleave a FRET-quenched XBP1 RNA mini-substrate (Han et al., 2009), consistent with reduced RNase activity in vivo.
A construct containing the cytosolic kinase and RNase domains of human IRE1α (residues 469-977, IRE1α*) or equivalent IRE1α mutants was expressed in SF9 insect cells using the Bac-to-Bac baculovirus expression system (Invitrogen) as described (Wang et al., 2012). […] (NEB)-treated dephosphorylated IRE1α* (dP-IRE1α*) was also prepared and all the crosslinking experiments were performed as described (Wang et al., 2012). The RNase assay using 5′FAM-3′BHQ-labeled XBP1 single stem-loop minisubstrate (5′FAM-[…]-3′BHQ, from Dharmacon) (SEQ ID NO:22), and the IRE1α*auto-phosphorylation kinase assay were both done as described (Wang et al., 2012). The ability of KIRA6 to inhibit the catalytic activity of Erk2, JNK2, JNK3, PKA, and Piml was determined using previously reported assay conditions (Hill et al., 2012). Internally ^32P-labelled RNAs (mouse XBP1 RNA and Ins2 RNA, as described in (Han et al., 2009), and rat rhodopsin mRNA) were also used as substrates. For time-course determination, IRE1α* proteins (16 nM) were incubated with or without 10 μM 1NM-PP1 for 20 min prior to addition of 20 nM radio-labeled RNAs. Reactions were quenched by addition of 4 M urea at different time points and then were subjected to urea 6% PAGE analysis. […] The cleavage buffer and general manipulation are the same as described (Wang et al., 2012). cDNA for rat rhodopsin was purchased from Invitrogen and amplified by PCR using primers: 5′-[…]-3′ (forward) (SEQ ID NO:23) and 5′-[…]-3′ (reverse) (SEQ ID NO:24). RNA was in vitro transcribed, cleaved by IRE1α*, and the cleavage sites mapped as described (Wang et al., 2012).

[10] = biological target: T3, dP-IRE1α* (Homo sapiens, UniProt O75460); assay: XBP1 RNA minisubstrate RNase assay with dephosphorylated IRE1α*; format: biochemical; details: of the levels of IRE1α*; increasing APY29
T3 construct: human IRE1α (residues 469-977, IRE1α*); made in house; host or cells: SF9 insect cells, then λ-phosphatase (NEB) treatment
T3 sequence (O75460 469-977): as the sequence (O75460 469-977) above
Excerpt: Reactions were quenched by addition of 4 M urea at different time points and then were subjected to urea 6% PAGE analysis.

[11] = biological target: T1, IRE1α*; assay: DSS crosslinking, oligomer/monomer ratio of IRE1α*; format: biochemical; details: saturating inhibitor, DSS crosslinker
[12] = test system: IRE1α mutants that lack kinase activity; details: cited from earlier work
[13] = biological target: T1, IRE1α*; assay: IRE1α* kinase assay (96-well dot blot, 32γ-ATP, STK peptide substrate 2); format: biochemical
Experimental: FIGS. 16A-16C. Divergent modulation of IRE1α RNase activity using distinct classes of kinase inhibitors. (FIG. 16A) KIRA6 inhibition of IRE1α* kinase activity. IC50 values determined by fitting percent kinase activity (n=3); Urea PAGE of competition cleavage by IRE1α* of XBP1 RNA mini-substrate (FIG. 16B) and α^32P-labeled Ins2 RNA (FIG. 16C), under indicated [KIRA6]; IC50s determined by fitting in-gel fluorescence intensities (XBP1) and phosphorimager (Ins2).
KIRAs are tested for ability to inhibit IRE1α* kinase and RNase activities in vitro. The XBP1 minisubstrate assay shown in FIGS. 1B-1C, is amenable to 96- or 384-well format, and is used to determine RNase IC50s. In parallel, kinase IC50s for all KIRAs are determined in a 96-well dot blot assay with 32γ-ATP and STK peptide substrate 2 as substrates. Time-dependence of inhibition is determined for all electrophile-containing KIRAs. RNase and kinase assays have been used to profile the KIRAs in FIG. 13, showing a strong correlation between kinase and RNase IC50s. […] Thus, the structure-based design strategy uses these two kinases as counter targets (described below).

[14] = varying concentration of the tested inhibitor

CNc1nccn2c(C(C)C)nc(-c3ccc(NC(=O)Nc4cccc(C(F)(F)F)c4)c4ccccc34)c12 [GP146(NMe), 1-(4-(3-isopropyl-8-(methylamino)imidazo[1,5-a]pyrazin-1-yl)naphthalen-1-yl)-3-(3-(trifluoromethyl)phenyl)urea]
XBP1 mRNA splicing (IRE1α RNase activity) in INS-1 cells ([1]; thapsigargin (Tg) 6 nM): does not block the splicing of XBP1 mRNA | IRE1α* RNase activity (XBP1 RNA cleavage), effect in words [2]: markedly diminished ability to inhibit the RNase activity of IRE1α compared to GP146

CC(C)c1nc(-c2ccc(NC(=O)c3cccc(C(F)(F)F)c3)c3ccccc23)c2c(N)nccn12 [GP146(Am), N-(4-(8-amino-3-isopropylimidazo[1,5-a]pyrazin-1-yl)naphthalen-1-yl)-3-(trifluoromethyl)benzamide]
IRE1α* RNase activity (XBP1 RNA cleavage), effect in words [2]: markedly diminished ability to inhibit the RNase activity of IRE1α compared to GP146

CC(C)c1nc(-c2ccc(NC(=O)Nc3cccc(C(F)(F)F)c3)cc2)c2c(N)nccn12 [KIRA2, 1-(4-(8-amino-3-isopropylimidazo[1,5-a]pyrazin-1-yl)phenyl)-3-(3-(trifluoromethyl)phenyl)urea]
IRE1α* RNase activity (XBP1 RNA cleavage), effect in words [2]: significant increase in overall potency

CC(C)c1nc(-c2ccc(NC(=O)Nc3cccc(C(F)(F)F)c3)c3ccccc23)c2c(N)nccn12 [KIRA3, 1-(4-(8-amino-3-isopropylimidazo[1,5-a]pyrazin-1-yl)naphthalen-1-yl)-3-(3-(trifluoromethyl)phenyl)urea]
off-target inhibition in kinase panel [3]: the only off-target inhibition observed is for the tyrosine kinases Src and Abl | endogenous IRE1α auto-phosphorylation in INS-1 cells ([4]; ER stress (Tg)): abrogates IRE1α autophosphorylation

c1cc(Nc2cc(C3CC3)[nH]n2)nc(Nc2ccc3nc[nH]c3c2)n1 [APY29]
accessibility of Cys572 [5]: no detectable difference | accessibility of Cys645 to alkylating agents [5]: highly shielded from alkylating agents | accessibility of Cys715 (rate of alkylation) [5]: slowing the rate of alkylation | IRE1α* RNase activity (XBP1 RNA cleavage), effect in words [2]: acting as an activator | RNase competition, IRE1α* under fixed KIRA3 (GP146) [2, 14]: progressively reverse IRE1α* RNase inhibition caused by a fixed concentration of KIRA3 | RNase competition, IRE1α* under fixed STF-083010 [2, 14]: cannot rescue direct inhibition caused by the covalent RNase modifier STF-083010 | RNase of yeast and murine IRE1α [6]: directly activate the RNase of yeast and murine IRE1α | pIC50 [7]: 6.55 | toxicity in cells [8]: pleiotropic toxicity, including proliferative blocks at low micromolar concentrations | RNase activity of IRE1α* (P830L) [9]: partially rescue RNase activity | autophosphorylation by IRE1α* (P830L) [9]: suppresses residual autophosphorylation | oligomeric state of IRE1α* (P830L) [9]: increases IRE1α* (P830L)'s oligomeric state | dP-IRE1α* cleavage of XBP1 mini-substrate restored, plateau [10]: ~60% | IRE1α* oligomerization (oligomer/monomer ratio) [11]: further enhances

CC(C)(C)n1nc(Cc2cccc3ccccc23)c2c(N)ncnc21 [1NM-PP1]
RNase activity of kinase-inactive IRE1α mutants [12]: able to rescue the RNase activity of IRE1α mutants that lack kinase activity

CNc1nccn2c(C(C)(C)C)nc(-c3ccc(NC(=O)Nc4cccc(C(F)(F)F)c4)c4ccccc34)c12 [(NMe)KIRA6, 1-(4-(8-methylamino-3-tert-butylimidazo[1,5-a]pyrazin-1-yl)naphthalen-1-yl)-3-(3-(trifluoromethyl)phenyl)urea]
XBP1 mRNA splicing in INS-1 cells ([1]; by Tm, compound at 10 μM): inhibits neither output | endogenous IRE1α auto-phosphorylation in INS-1 cells ([4]; by Tg, compound at 10 μM): inhibits neither output

CC(C)(C)c1nc(-c2ccc(NC(=O)Nc3cccc(F)c3)c3ccccc23)c2c(N)nccn12 [KIRA7]
pIC50 ([2]; IRE1α*): > 7.52 | pIC50 [13]: 7.46
